Tests used:
[1] = administration in humans; cited from earlier work
[2] = system: mammalian pre-adipocytes / adipocytes; test: Adipogenesis inhibition, Oil Red O staining; type: cell-based
Method: […] C.) of 5% CO2 and 95% air; • f) Fixing, the cells of step e by adding 100 μl of 10% formalin and staining using the Oil Red O technique; • g) Reading the optical density of cells of step f at 492 nm in a microplate reader and expressing the results as inhibitory concentration (IC50) values using the graph pad prism software; • h) Calculating the percentage inhibition of adipogenesis in the cells of steps f and g using the formula, C-T/T×100, wherein C is the absorbance of Oil Red O in differentiating/undifferentiated cells and T is the absorbance of Oil Red O in sample treated differentiating/undifferentiated cells. • i) Adding 200 μl of freshly prepared Adipogenesis induction medium to the wells of step a. • j) Adding 200 μl of freshly prepared Adipogenesis progression medium comprising graded concentrations of forskolin (50 μg/ml and 100 μg/ml respectively) to the wells of step i after 72 hours of incubation with the Adipogenesis induction medium; • k) Incubating the cells treated with forskolin (step j), adipogenesis induction medium (step i) and adipogenesis progression medium (step j) for 48 hours in a humidified atmosphere (37 deg. C.) of 5% (CO2 and 95% air; • l) Fixing the cells of step 1 by adding 100 μl of 10% formal in and staining using the Oil Red O technique; • m) Reading the optical density of cells of step m at 492 nm in as microplate reader and expressing the results as inhibitory concentration (IC50) values using the graph pad prism software; • n) Calculating the percentage inhibition of adipogenesis in the cells of steps m and n using the formula, C-T/T×100, wherein C is the absorbance of Oil Red O in differentiating/undifferentiated cells and T is the absorbance of Oil Red O in sample treated differentiating/undifferentiated cells; and • o) Comparing percentage inhibition of adipogenesis in the cells of steps h and o.

C=C[C@@]1(C)CC(=O)[C@]2(O)[C@@]3(C)[C@@H](O)CCC(C)(C)[C@@H]3[C@H](O)[C@H](OC(C)=O)[C@@]2(C)O1 [forskolin]
clinically significant side effects [1]: does not cause clinically significant side effects | inhibition at 6.25 µg/mL ([2]; Adipocyte, forskolin 6.25 μg/ml, read-out: % inhibition of adipogenesis when forskolin is added after differentiation of pre-adipocytes to the adipocyte stage): 1.2% | inhibition at 12.5 µg/mL ([2]; Adipocyte, forskolin 12.50 μg/ml, read-out: % inhibition of adipogenesis when forskolin is added after differentiation of pre-adipocytes to the adipocyte stage): 6.8% | inhibition at 25 µg/mL ([2]; Adipocyte, forskolin 25 μg/ml, read-out: % inhibition of adipogenesis when forskolin is added after differentiation of pre-adipocytes to the adipocyte stage): 10.6% | inhibition at 50 µg/mL ([2]; Adipocyte, forskolin 50 μg/ml, read-out: % inhibition of adipogenesis when forskolin is added after differentiation of pre-adipocytes to the adipocyte stage): 12.9% | inhibition at 100 µg/mL ([2]; Adipocyte, forskolin 100 μg/ml, read-out: % inhibition of adipogenesis when forskolin is added after differentiation of pre-adipocytes to the adipocyte stage): 18.5% | % inhibition of adipogenesis when forskolin is added at the pre-adipocyte stage (before differentiation into the adipocyte stage) ([2]; forskolin 6.25 μg/ml): 10.2% | % inhibition of adipogenesis when forskolin is added at the pre-adipocyte stage (before differentiation into the adipocyte stage) ([2]; forskolin 12.50 μg/ml): 12.8% | % inhibition of adipogenesis when forskolin is added at the pre-adipocyte stage (before differentiation into the adipocyte stage) ([2]; forskolin 25 μg/ml): 19.7% | % inhibition of adipogenesis when forskolin is added at the pre-adipocyte stage (before differentiation into the adipocyte stage) ([2]; forskolin 50 μg/ml): 35.5% | % inhibition of adipogenesis when forskolin is added at the pre-adipocyte stage (before differentiation into the adipocyte stage) ([2]; forskolin 100 μg/ml): 41.8%
